Experimental data from US20250092064A1, “BENZOTRIAZOLE COMPOUND” (DAIICHI SANKYO COMPANY, LIMITED, priority 2022, published 2025).
pIC50: −log10 of the molar value.

Columns and labels:
[1] = system: NQO1 activity in Hepa1c1c7 cells; test: NAD(P)H: quinone oxidoreductase-1 (NQO1) enzyme induction assay (in vitro); type: cell-based, mouse; settings: Mus musculus, Hepa-1c1c7, NQO1 activity with 400 nM test compound as a ratio from the base without compound, about 48 hr
Method: The NQO1 assay was performed based on a previous report (Methods in Enzymology 2004; 382: 243-258). Hepa1c1c7 cells (mouse hepatocyte cell line, ATCC, cat. no. CRL-2026) were cultured in D-MEM medium containing 10% FBS and 1% penicillin/streptomycin (5% CO2, 37° C.), and seeded into 96-well plates (Corning REF. 353072) at 1×10^4 cells/well. A portion of the wells were prepared with medium only for background measurement without seeding cells. The next day, 400 nM of the test compound (0.004% of the final concentration in DMSO) dissolved in DMSO was added thereto, and the wells were incubated for about 48 hr. A well without adding the test compound was prepared for base activity assay in part. […] After the medium was removed, 50 μL of the cell lysate was added and incubated at 37° C. for 10 minutes, followed by shaking at room temperature for 10 minutes. 200 μL of reaction solution was added thereto, and allowed to stand for 5 minutes at room temperature. 50 μL of the stop solution was added thereto, and absorbance was measured at 610 nm on a SpectraMax PLUS384 (Molecular devices) or […] Pharma Biomedical). The test results were analyzed in Excel, and the NQO1 activity upon addition of 400 nM of test compound was calculated as a ratio from the base without the compound. NQO1 activity ratio when test compound is added=(absorbance when test compound is added-absorbance of medium only)/(absorbance without addition of compound-absorbance of medium only) [numerical formula 2] The results of each test compound in this test are shown in the following Table 2 (A:5<NQO1 activity ratio, B:3<NQO1 activity ratio≤5).

[2] = target: binding between Nrf2 and Keap1 (Homo sapiens (Human), UniProt Q14145); test: FP assay (in vitro): inhibition of Nrf2-Keap1 binding by fluorescence polarization; settings: GST-fused human Keap1 (325-642) 20 nM, FITC-labeled Nrf2 peptide 10 nM, 2 hr at room temperature
binding between Nrf2 and Keap1, sequence (Q14145 325-624 limits assumed): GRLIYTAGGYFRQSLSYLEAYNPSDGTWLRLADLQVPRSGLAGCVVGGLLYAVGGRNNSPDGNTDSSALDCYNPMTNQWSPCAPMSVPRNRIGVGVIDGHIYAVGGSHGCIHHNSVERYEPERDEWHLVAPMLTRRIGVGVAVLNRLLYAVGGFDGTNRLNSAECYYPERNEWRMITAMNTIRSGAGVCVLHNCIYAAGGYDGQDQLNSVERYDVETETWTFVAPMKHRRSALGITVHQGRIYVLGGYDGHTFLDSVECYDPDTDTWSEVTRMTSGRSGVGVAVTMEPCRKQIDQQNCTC

Row | SMILES | fold induction at 0.4 µM [1] | pIC50 [2]
1 | CCOc1ccc2c(n1)O[C@H](CC)CN(Cc1cc(C(CC(=O)O)c3ccc4c(nnn4C)c3C)cc3c1CCC3)S2(=O)=O (stereo partly drawn) [Example 9, 3-(1,4-Dimethyl-1H-benzotriazol-5-yl)-3-(7-{[(4R)-7-ethoxy-4-ethyl-1,1-dioxido-3,4-dihydro-2H-pyrido[2,3-b][1,4,5]oxathiazepin-2-yl]methyl}-2,3-dihydro-1H-inden-5-yl)propanoic acid] | > 5 | 7.52 to 8.00
2 | CC[C@@H]1CN(Cc2cc(C(CC(=O)O)c3ccc4c(nnn4C)c3C)cc3c2CCC3)S(=O)(=O)c2cc(C)cnc2O1 (stereo partly drawn) [Example 10, 3-(1,4-Dimethyl-1H-benzotriazol-5-yl)-3-(7-{[(4R)-4-ethyl-8-methyl-1,1-dioxido-3,4-dihydro-2H-pyrido[2,3-b][1,4,5]oxathiazepin-2-yl]methyl}-2,3-dihydro-1H-inden-5-yl)propanoic acid] | > 5 | 7.52 to 8.00
3 | CC[C@@H]1CN(Cc2cc(C(CC(=O)O)c3ccc4c(nnn4C)c3C)cc3c2CCC3)S(=O)(=O)c2ccc(C)nc2O1 (stereo partly drawn) [Example 11, 3-(1,4-Dimethyl-1H-benzotriazol-5-yl)-3-(7-{[(4R)-4-ethyl-7-methyl-1,1-dioxido-3,4-dihydro-2H-pyrido[2,3-b][1,4,5]oxathiazepin-2-yl]methyl}-2,3-dihydro-1H-inden-5-yl)propanoic acid] | > 5 | 7.52 to 8.00
4 | CC[C@@H]1CN(Cc2cc(C(CC(=O)O)c3ccc4c(nnn4C)c3C)cc3c2CCC3)S(=O)(=O)c2ccccc2O1 (stereo partly drawn) [Example 12, 3-(1,4-Dimethyl-1H-benzotriazol-5-yl)-3-(7-{[(4R)-4-ethyl-1,1-dioxido-3,4-dihydro-2H-5,1,2-benzoxathiazepin-2-yl]methyl}-2,3-dihydro-1H-inden-5-yl)propanoic acid] | > 5 | ≥ 8.00
5 | CC[C@@H]1CN(Cc2cc(C(CC(=O)O)c3ccc4c(nnn4C)c3C)cc3c2CCC3)S(=O)(=O)c2cc(Cl)c(F)cc2O1 (stereo partly drawn) [Example 13, 3-(7-{[(4R)-8-Chloro-4-ethyl-7-fluoro-1,1-dioxido-3,4-dihydro-2H-5,1,2-benzoxathiazepin-2-yl]methyl}-2,3-dihydro-1H-inden-5-yl)-3-(1,4-dimethyl-1H-benzotriazol-5-yl)propanoic acid] | > 5 | ≥ 8.00
6 | CC[C@@H]1CN(Cc2cc(C(CC(=O)O)c3ccc4c(nnn4C)c3C)cc3c2CCC3)S(=O)(=O)c2cc(Cl)ccc2O1 (stereo partly drawn) [Example 14, 3-(7-{[(4R)-8-Chloro-4-ethyl-1,1-dioxido-3,4-dihydro-2H-5,1,2-benzoxathiazepin-2-yl]methyl}-2,3-dihydro-1H-inden-5-yl)-3-(1,4-dimethyl-1H-benzotriazol-5-yl)propanoic acid] | > 5 | 7.52 to 8.00
7 | CC[C@@H]1CN(Cc2cc(C(CC(=O)O)c3ccc4c(nnn4C)c3C)cc3c2CCC3)S(=O)(=O)c2cccc(Cl)c2O1 (stereo partly drawn) [Example 16, 3-(7-{[(4R)-6-Chloro-4-ethyl-1,1-dioxido-3,4-dihydro-2H-5,1,2-benzoxathiazepin-2-yl]methyl}-2,3-dihydro-1H-inden-5-yl)-3-(1,4-dimethyl-1H-benzotriazol-5-yl)propanoic acid] | > 5 | ≥ 8.00
8 | CC[C@@H]1CN(Cc2cc(C(CC(=O)O)c3ccc4c(nnn4C)c3C)cc3c2CCC3)S(=O)(=O)c2c(Cl)cccc2O1 (stereo partly drawn) [Example 17, 3-(7-{[(4R)-9-Chloro-4-ethyl-1,1-dioxido-3,4-dihydro-2H-5,1,2-benzoxathiazepin-2-yl]methyl}-2,3-dihydro-1H-inden-5-yl)-3-(1,4-dimethyl-1H-benzotriazol-5-yl)propanoic acid] | 3 to 5 | ≥ 8.00
9 | CCOc1cc2c(cc1Cl)S(=O)(=O)N(Cc1cc(C(CC(=O)O)c3ccc4c(nnn4C)c3C)cc3c1CCC3)C[C@@H](CC)O2 (stereo partly drawn) [Example 18, 3-(7-{[(4R)-8-Chloro-7-ethoxy-4-ethyl-1,1-dioxido-3,4-dihydro-2H-5,1,2-benzoxathiazepin-2-yl]methyl}-2,3-dihydro-1H-inden-5-yl)-3-(1,4-dimethyl-1H-benzotriazol-5-yl)propanoic acid] | 3 to 5 | 7.00 to 7.52
10 | CCOc1ccc2c(n1)O[C@H](CC)CN(Cc1cc(C(CC(=O)O)c3ccc4c(nnn4C)c3C)cc3ccsc13)S2(=O)=O (stereo partly drawn) [Example 19, 3-(1,4-Dimethyl-1H-benzotriazol-5-yl)-3-(7-{[(4R)-7-ethoxy-4-ethyl-1,1-dioxido-3,4-dihydro-2H-pyrido[2,3-b][1,4,5]oxathiazepin-2-yl]methyl}-1-benzothiophen-5-yl)propanoic acid] | > 5 | 7.52 to 8.00
11 | CC[C@@H]1CN(Cc2cc([C@@H](CC(=O)O)c3ccc4c(nnn4C)c3C)cc3c2CCC3)S(=O)(=O)c2cc(Cl)c(F)cc2O1 [Example 20, (3R)-3-(7-{[(4R)-8-Chloro-4-ethyl-7-fluoro-1,1-dioxido-3,4-dihydro-2H-5,1,2-benzoxathiazepin-2-yl]methyl}-2,3-dihydro-1H-inden-5-yl)-3-(1,4-dimethyl-1H-benzotriazol-5-yl)propanoic acid] | > 5 | 7.52 to 8.00
12 | CC[C@@H]1CN(Cc2cc([C@H](CC(=O)O)c3ccc4c(nnn4C)c3C)cc3c2CCC3)S(=O)(=O)c2cc(Cl)c(F)cc2O1 [Example 21, (3S)-3-(7-{[(4R)-8-Chloro-4-ethyl-7-fluoro-1,1-dioxido-3,4-dihydro-2H-5,1,2-benzoxathiazepin-2-yl]methyl}-2,3-dihydro-1H-inden-5-yl)-3-(1,4-dimethyl-1H-benzotriazol-5-yl)propanoic acid] | > 5 | ≥ 8.00
13 | CC[C@@H]1CN(Cc2cc([C@@H](CC(=O)O)c3ccc4c(nnn4C)c3C)cc3ccsc23)S(=O)(=O)c2cc(Cl)c(F)cc2O1 [Example 22, (3R)-3-(7-{[(4R)-8-Chloro-4-ethyl-7-fluoro-1,1-dioxido-3,4-dihydro-2H-5,1,2-benzoxathiazepin-2-yl]methyl}-1-benzothiophen-5-yl)-3-(1,4-dimethyl-1H-benzotriazol-5-yl)propanoic acid] | > 5 | ≥ 8.00
14 | CC[C@@H]1CN(Cc2cc([C@H](CC(=O)O)c3ccc4c(nnn4C)c3C)cc3ccsc23)S(=O)(=O)c2cc(Cl)c(F)cc2O1 [Example 23, (3S)-3-(7-{[(4R)-8-Chloro-4-ethyl-7-fluoro-1,1-dioxido-3,4-dihydro-2H-5,1,2-benzoxathiazepin-2-yl]methyl}-1-benzothiophen-5-yl)-3-(1,4-dimethyl-1H-benzotriazol-5-yl)propanoic acid] | > 5 | ≥ 8.00
15 | CC[C@@H]1CN(Cc2cc(C(CC(=O)O)c3ccc4c(nnn4C)c3C)cc3c2CCC3)S(=O)(=O)c2cccnc2O1 (stereo partly drawn) [Example 24, 3-(1,4-Dimethyl-1H-benzotriazol-5-yl)-3-(7-{[(4R)-4-ethyl-1,1-dioxido-3,4-dihydro-2H-pyrido[2,3-b][1,4,5]oxathiazepin-2-yl]methyl}-2,3-dihydro-1H-inden-5-yl)propanoic acid] | > 5 | 7.52 to 8.00
16 | CC[C@@H]1CN(Cc2cc(C(CC(=O)O)c3ccc4c(nnn4C)c3C)cc3c2CCC3)S(=O)(=O)c2cc(C(F)(F)F)cnc2O1 (stereo partly drawn) [Example 25, 3-(1,4-Dimethyl-1H-benzotriazol-5-yl)-3-(7-{[(4R)-4-ethyl-1,1-dioxido-8-(trifluoromethyl)-3,4-dihydro-2H-pyrido[2,3-b][1,4,5]oxathiazepin-2-yl]methyl}-2,3-dihydro-1H-inden-5-yl)propanoic acid] | > 5 | 7.52 to 8.00
17 | CC[C@@H]1CN(Cc2cc(C(CC(=O)O)c3ccc4c(nnn4C)c3C)cc3c2CCC3)S(=O)(=O)c2ccc3ccccc3c2O1 (stereo partly drawn) [Example 26, 3-(1,4-Dimethyl-1H-benzotriazol-5-yl)-3-(7-{[(2R)-2-ethyl-5,5-dioxido-2,3-dihydro-4H-naphtho[1,2-b][1,4,5]oxathiazepin-4-yl]methyl}-2,3-dihydro-1H-inden-5-yl)propanoic acid] | > 5 | 7.00 to 7.52
18 | CC[C@@H]1CN(Cc2cc(C(CC(=O)O)c3ccc4c(nnn4C)c3Cl)cc3c2CCC3)S(=O)(=O)c2cc(Cl)cnc2O1 (stereo partly drawn) [Example 29, 3-(7-{[(4R)-8-Chloro-4-ethyl-1,1-dioxido-3,4-dihydro-2H-pyrido[2,3-b][1,4,5]oxathiazepin-2-yl]methyl}-2,3-dihydro-1H-inden-5-yl)-3-(4-chloro-1-methyl-1H-benzotriazol-5-yl)propanoic acid] | > 5 | ≥ 8.00
19 | CC[C@@H]1CN(Cc2cc([C@H](CC(=O)O)c3cc(Cl)c4c(nnn4C)c3C)cc3ccsc23)S(=O)(=O)c2cc(Cl)cnc2O1 [Example 30, (3S)-3-(7-Chloro-1,4-dimethyl-1H-benzotriazol-5-yl)-3-(7-{[(4R)-8-chloro-4-ethyl-1,1-dioxido-3,4-dihydro-2H-pyrido[2,3-b][1,4,5]oxathiazepin-2-yl]methyl}-1-benzothiophen-5-yl)propanoic acid] | 3 to 5 | ≥ 8.00
